According to ChEMBL document CHEMBL5154899, “Spiropyrimidinetrione DNA Gyrase Inhibitors with Potent and Selective Antituberculosis Activity” (J Med Chem, 2022):
In brackets after ≈: the same amount, converted by molar mass.

Tests used:
[1] = system: Mycobacterium tuberculosis; experiment: microbe, parasite or virus in culture; details: H37Rv, 192 h
Description: Antibacterial activity against Mycobacterium tuberculosis H37Rv assessed as inhibition of bacterial growth measured after 8 days by Alamar blue reagent based broth microdilution method

Staphylococcus aureus = experiment: microbe, parasite or virus in culture; details: ATTC 25923, 192 h
Escherichia coli = experiment: microbe, parasite or virus in culture; details: ATTC 25922, 192 h
[2] = target: DNA gyrase subunit A/DNA gyrase subunit B (Mycobacterium tuberculosis (strain ATCC 25618 / H37Rv), UniProt P9WG45+P9WG47); experiment: Inhibition of Mycobacterium tuberculosis H37Rv DNA gyrase
DNA gyrase subunit A/DNA gyrase subunit B, sequence (P9WG45 whole entry): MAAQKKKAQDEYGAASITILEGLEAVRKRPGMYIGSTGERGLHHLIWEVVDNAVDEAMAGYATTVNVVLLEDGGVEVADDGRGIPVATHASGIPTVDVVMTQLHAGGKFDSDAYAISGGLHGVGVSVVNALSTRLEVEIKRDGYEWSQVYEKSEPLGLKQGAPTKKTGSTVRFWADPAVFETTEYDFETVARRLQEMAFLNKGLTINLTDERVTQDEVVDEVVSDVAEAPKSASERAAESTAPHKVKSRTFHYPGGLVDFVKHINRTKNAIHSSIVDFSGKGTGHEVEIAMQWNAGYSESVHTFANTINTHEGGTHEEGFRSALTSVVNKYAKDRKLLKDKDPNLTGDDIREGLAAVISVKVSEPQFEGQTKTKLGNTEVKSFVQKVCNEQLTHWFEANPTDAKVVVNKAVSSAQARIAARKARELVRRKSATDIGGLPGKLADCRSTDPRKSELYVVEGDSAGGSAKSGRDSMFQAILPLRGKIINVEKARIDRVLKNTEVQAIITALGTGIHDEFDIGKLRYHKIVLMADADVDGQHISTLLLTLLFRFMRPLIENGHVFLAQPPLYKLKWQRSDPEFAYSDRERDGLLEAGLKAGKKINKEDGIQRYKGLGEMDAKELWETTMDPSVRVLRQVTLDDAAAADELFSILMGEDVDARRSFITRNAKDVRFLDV
DNA gyrase subunit A/DNA gyrase subunit B, sequence (P9WG47 whole entry): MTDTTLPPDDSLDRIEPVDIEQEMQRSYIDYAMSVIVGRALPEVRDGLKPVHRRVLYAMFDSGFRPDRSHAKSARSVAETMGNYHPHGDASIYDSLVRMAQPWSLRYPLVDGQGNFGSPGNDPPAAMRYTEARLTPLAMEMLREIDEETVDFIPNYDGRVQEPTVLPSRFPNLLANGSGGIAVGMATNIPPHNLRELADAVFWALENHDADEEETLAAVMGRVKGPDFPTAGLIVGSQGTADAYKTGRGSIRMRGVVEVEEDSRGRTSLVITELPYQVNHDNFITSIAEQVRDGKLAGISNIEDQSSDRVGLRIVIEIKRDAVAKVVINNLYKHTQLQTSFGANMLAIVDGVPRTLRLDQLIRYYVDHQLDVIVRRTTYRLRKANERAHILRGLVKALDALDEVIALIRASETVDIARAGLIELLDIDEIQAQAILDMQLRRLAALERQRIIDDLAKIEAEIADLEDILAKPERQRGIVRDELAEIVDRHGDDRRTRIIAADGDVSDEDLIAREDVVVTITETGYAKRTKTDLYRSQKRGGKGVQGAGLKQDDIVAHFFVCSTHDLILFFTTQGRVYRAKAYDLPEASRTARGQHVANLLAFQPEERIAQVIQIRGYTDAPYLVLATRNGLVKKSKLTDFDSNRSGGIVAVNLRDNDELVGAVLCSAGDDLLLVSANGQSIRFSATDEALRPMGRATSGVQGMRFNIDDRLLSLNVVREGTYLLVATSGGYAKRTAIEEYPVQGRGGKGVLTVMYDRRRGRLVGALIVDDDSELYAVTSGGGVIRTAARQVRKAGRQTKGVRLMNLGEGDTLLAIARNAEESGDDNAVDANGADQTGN

DNA gyrase = DNA gyrase (Staphylococcus aureus, UniProt P0A0K8+P20831)
DNA gyrase, sequence (P0A0K8 whole entry): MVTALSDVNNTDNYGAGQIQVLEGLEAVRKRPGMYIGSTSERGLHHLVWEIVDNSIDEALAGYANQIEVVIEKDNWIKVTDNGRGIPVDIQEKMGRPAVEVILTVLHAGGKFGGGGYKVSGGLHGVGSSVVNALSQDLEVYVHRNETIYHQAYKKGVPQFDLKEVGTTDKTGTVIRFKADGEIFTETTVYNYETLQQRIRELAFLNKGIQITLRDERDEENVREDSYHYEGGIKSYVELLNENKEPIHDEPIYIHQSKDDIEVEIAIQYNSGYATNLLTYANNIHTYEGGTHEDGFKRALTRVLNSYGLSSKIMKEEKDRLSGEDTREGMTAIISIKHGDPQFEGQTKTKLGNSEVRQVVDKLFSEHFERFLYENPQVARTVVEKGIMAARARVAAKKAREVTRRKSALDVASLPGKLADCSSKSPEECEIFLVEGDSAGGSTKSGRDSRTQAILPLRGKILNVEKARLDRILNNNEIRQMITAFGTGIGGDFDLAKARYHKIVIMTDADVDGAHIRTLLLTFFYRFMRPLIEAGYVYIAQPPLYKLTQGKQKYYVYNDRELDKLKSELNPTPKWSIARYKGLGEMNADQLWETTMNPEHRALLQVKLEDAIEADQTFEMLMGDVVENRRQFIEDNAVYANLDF
DNA gyrase, sequence (P20831 whole entry): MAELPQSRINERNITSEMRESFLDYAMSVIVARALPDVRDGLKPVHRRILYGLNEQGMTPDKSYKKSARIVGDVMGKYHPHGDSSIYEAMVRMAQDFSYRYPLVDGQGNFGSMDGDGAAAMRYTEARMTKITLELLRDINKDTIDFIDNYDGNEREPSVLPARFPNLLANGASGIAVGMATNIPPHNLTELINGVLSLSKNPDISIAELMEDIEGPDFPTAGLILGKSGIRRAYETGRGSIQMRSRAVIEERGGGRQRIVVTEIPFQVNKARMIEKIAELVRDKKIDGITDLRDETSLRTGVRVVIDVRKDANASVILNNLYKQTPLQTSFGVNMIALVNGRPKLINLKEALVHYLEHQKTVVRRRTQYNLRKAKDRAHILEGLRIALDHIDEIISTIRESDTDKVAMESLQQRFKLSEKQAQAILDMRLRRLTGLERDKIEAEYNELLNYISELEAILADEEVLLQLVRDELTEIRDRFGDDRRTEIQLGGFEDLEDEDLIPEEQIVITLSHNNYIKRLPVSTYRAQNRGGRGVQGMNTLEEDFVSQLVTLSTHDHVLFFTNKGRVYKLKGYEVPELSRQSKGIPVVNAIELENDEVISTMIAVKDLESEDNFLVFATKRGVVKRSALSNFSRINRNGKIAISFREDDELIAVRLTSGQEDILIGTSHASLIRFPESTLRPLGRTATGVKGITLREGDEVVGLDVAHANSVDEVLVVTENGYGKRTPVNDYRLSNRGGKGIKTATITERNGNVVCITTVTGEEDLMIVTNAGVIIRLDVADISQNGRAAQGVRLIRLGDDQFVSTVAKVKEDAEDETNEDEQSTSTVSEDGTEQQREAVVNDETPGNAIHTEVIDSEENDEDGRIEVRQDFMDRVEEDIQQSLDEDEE

[3] = system: Mycobacterium tuberculosis; experiment: microbe, parasite or virus in culture; details: H37Rv, 264 h
Description: Antibacterial activity against wild type Mycobacterium tuberculosis H37Rv assessed as inhibition of bacterial growth incubated for 11 days

[4] = system: Mycobacterium tuberculosis; experiment: microbe, parasite or virus in culture; details: H37Rv, 264 h; remark: listed apart in the source
Description: Antibacterial activity against Mycobacterium tuberculosis H37Rv gyrA -FDASTetON-1 hypomorph assessed as inhibition of bacterial growth incubated for 11 days

For `Cc1nnc(COc2noc3c(F)c4c(cc23)CC2(C(=O)NC(=O)NC2=O)[C@H]2[C@H](C)O[C@H](C)CN42)o1`, the MIC [1] was 63 µM (≈ 31.5 µg/mL), the MIC (Staphylococcus aureus) was greater than 125 µM and the MIC (Escherichia coli) was greater than 125 µM.
With `C[C@@H]1CN2c3c(cc4c(OC[C@@H]5CNC(=O)C5)noc4c3F)CC3(C(=O)NC(=O)NC3=O)[C@H]2[C@H](C)O1` the MIC [1] was 2 µM (≈ 1 µg/mL), the MIC (Staphylococcus aureus) was greater than 125 µM and the MIC (Escherichia coli) was greater than 250 µM.
Compound `Cc1nnc(-c2noc3c(F)c4c(cc23)CC2(C(=O)NC(=O)NC2=O)[C@H]2[C@H](C)O[C@H](C)CN42)o1` has an MIC [1] of 0.45 µM (≈ 0.212 µg/mL) and an MIC (Escherichia coli) of 31 µM (≈ 14.6 µg/mL).
In the case of `C[C@H]1C[C@@H](C)[C@H]2N(C1)c1c(cc3c(OC[C@@H]4CCC(=O)N4)noc3c1F)CC21C(=O)NC(=O)NC1=O`, the MIC [1] is reported as 16 µM (≈ 7.99 µg/mL), the MIC (Staphylococcus aureus) is reported as 7.8 µM (≈ 3.9 µg/mL) and the MIC (Escherichia coli) is reported as 63 µM (≈ 31.5 µg/mL).
`C[C@@H]1CN2c3c(cc4c(N5C[C@H](O)[C@@H](O)C5)noc4c3F)CC3(C(=O)NC(=O)NC3=O)[C@H]2[C@H](C)O1` showed an MIC [1] of 31 µM (≈ 15.2 µg/mL) and an MIC (Escherichia coli) greater than 125 µM.
With `C[C@@H]1CN2c3c(cc4c(OC[C@@H]5COC(=O)N5)noc4c3F)CC3(C(=O)NC(=O)NC3=O)[C@H]2[C@H](C)O1` the MIC [1] was 2 µM (≈ 1.01 µg/mL) and the MIC (Escherichia coli) was greater than 250 µM.
For `CC(=O)N1[C@H](C)CN2c3c(cc4c(N5C(=O)OC[C@@H]5C)noc4c3F)CC3(C(=O)NC(=O)NC3=O)[C@H]2[C@@H]1C`, the MIC [1] was greater than 125 µM, the MIC (Staphylococcus aureus) was greater than 125 µM and the MIC (Escherichia coli) was greater than 125 µM.
Work on `C[C@@H]1CN2c3c(cc4c(N5CC[C@@H](O)C5)noc4c3F)CC3(C(=O)NC(=O)NC3=O)[C@H]2[C@H](C)O1` yielded an MIC [1] of 3.9 µM (≈ 1.85 µg/mL).
`C[C@@H]1CN2c3c(cc4c(N5CC[C@H](F)C5)noc4c3F)CC3(C(=O)NC(=O)NC3=O)[C@H]2[C@H](C)O1` gave an MIC [1] of 4 µM (≈ 1.9 µg/mL), an MIC (Staphylococcus aureus) of 2 µM (≈ 0.951 µg/mL) and an MIC (Escherichia coli) of 31 µM (≈ 14.7 µg/mL).
In the case of `C[C@@H]1CN2c3c(cc4c(OC[C@H]5COC(=O)N5)noc4c3F)CC3(C(=O)NC(=O)NC3=O)[C@H]2[C@H](C)O1`, the MIC (Staphylococcus aureus) is reported as 63 µM (≈ 31.7 µg/mL).
Compound `C[C@@H]1CN2c3c(cc4c(OC[C@@H]5CCC(=O)N5)noc4c3F)CC3(C(=O)NC(=O)NC3=O)[C@H]2[C@H](C)N1C#N` has an MIC [1] of 0.49 µM (≈ 0.257 µg/mL), an MIC (Staphylococcus aureus) greater than 125 µM and an MIC (Escherichia coli) greater than 125 µM.
Compound `C[C@@H]1CN2c3c(cc4c(N5CC[C@H](O)C5)noc4c3F)CC3(C(=O)NC(=O)NC3=O)[C@H]2[C@H](C)O1` has an IC50 [2] of 20 µM, an IC50 (DNA gyrase) of 6.9 µM and an MIC [1] of 5.9 µM (≈ 2.79 µg/mL). The MIC (Staphylococcus aureus) was 64 µM (≈ 30.3 µg/mL), the MIC (Escherichia coli) was greater than 125 µM and the MIC50 [3] was 3.3 µM (≈ 1.56 µg/mL). It also gave an MIC99 [3] of 5.9 µM (≈ 2.79 µg/mL), an MIC50 [4] of 0.92 µM (≈ 0.436 µg/mL) and an MIC99 [4] of 2.4 µM (≈ 1.14 µg/mL).
With `C[C@@H]1CN2c3c(cc4c(OC[C@@H]5CCC(=O)N5)noc4c3F)CC3(C(=O)NC(=O)NC3=O)[C@H]2[C@H](C)O1` the IC50 [2] was 2.6 µM, the MIC [1] was 1 µM (≈ 0.501 µg/mL) and the MIC (Staphylococcus aureus) was greater than 125 µM. It also gave an MIC (Escherichia coli) greater than 125 µM.
With `C[C@@H]1CN2c3c(cc4c(N5C(=O)OC[C@@H]5C)noc4c3F)CC3(C(=O)NC(=O)NC3=O)[C@H]2[C@H](C)N1O` the MIC [1] was greater than 125 µM, the MIC (Staphylococcus aureus) was greater than 125 µM and the MIC (Escherichia coli) was greater than 125 µM.
For `C[C@@H]1CN2c3c(cc4c(N5CC[C@H](C(=O)O)C5)noc4c3F)CC3(C(=O)NC(=O)NC3=O)[C@H]2[C@H](C)O1`, the MIC [1] was greater than 125 µM, the MIC (Staphylococcus aureus) was greater than 125 µM and the MIC (Escherichia coli) was greater than 125 µM.
For `C[C@@H]1CN2c3c(cc4c(N5C[C@@H](O)[C@H](O)C5)noc4c3F)CC3(C(=O)NC(=O)NC3=O)[C@H]2[C@H](C)O1`, the IC50 [2] was 16 µM, the IC50 (DNA gyrase) was 6.6 µM and the MIC [1] was 5.9 µM (≈ 2.89 µg/mL). The MIC (Staphylococcus aureus) was greater than 125 µM, the MIC50 [3] was 3.65 µM (≈ 1.79 µg/mL) and the MIC99 [3] was 6.75 µM (≈ 3.3 µg/mL). For the same compound, the MIC50 [4] was 1.24 µM (≈ 0.607 µg/mL) and the MIC99 [4] was 3.2 µM (≈ 1.57 µg/mL).
In the case of `C[C@@H]1CN2c3c(cc4c(OC[C@H]5CNC(=O)C5)noc4c3F)CC3(C(=O)NC(=O)NC3=O)[C@H]2[C@H](C)O1`, the MIC (Staphylococcus aureus) is reported as 31 µM (≈ 15.5 µg/mL) and the MIC (Escherichia coli) is reported as 63 µM (≈ 31.6 µg/mL).
Compound `C[C@@H]1CN2c3c(cc4c(N5C[C@@H](O)[C@@H](O)C5)noc4c3F)CC3(C(=O)NC(=O)NC3=O)[C@H]2[C@H](C)O1` has an MIC [1] of 16 µM (≈ 7.83 µg/mL).
In the case of `C[C@@H]1CN2c3c(cc4c(N5CCC[C@@H](O)C5)noc4c3F)CC3(C(=O)NC(=O)NC3=O)[C@H]2[C@H](C)O1`, the MIC [1] is reported as 10 µM (≈ 4.87 µg/mL) and the MIC (Escherichia coli) is reported as greater than 125 µM.
`COc1c(N2C[C@@H]3CCCN[C@@H]3C2)c(F)cc2c(=O)c(C(=O)O)cn(C3CC3)c12` [MOXIFLOXACIN] gave an MIC [1] of 0.17 µM (≈ 0.0682 µg/mL), an MIC50 [3] of 0.12 µM (≈ 0.0482 µg/mL) and an MIC99 [3] of 0.19 µM (≈ 0.0763 µg/mL). The MIC50 [4] was 0.041 µM (≈ 0.0165 µg/mL) and the MIC99 [4] was 0.07 µM (≈ 0.0281 µg/mL).
With `CO[C@H]1/C=C/O[C@@]2(C)Oc3c(C)c(O)c4c(O)c(c(/C=N/N5CCN(C)CC5)c(O)c4c3C2=O)NC(=O)/C(C)=C\C=C\[C@H](C)[C@H](O)[C@@H](C)[C@@H](O)[C@@H](C)[C@H](OC(C)=O)[C@@H]1C` [RIFAMPIN] the MIC50 [3] was 0.24 µM (≈ 0.198 µg/mL), the MIC99 [3] was 0.041 µM (≈ 0.0337 µg/mL) and the MIC50 [4] was 0.021 µM (≈ 0.0173 µg/mL). The MIC99 [4] was 0.037 µM (≈ 0.0304 µg/mL).
In the case of `C[C@@H]1CN2c3c(cc4c(N5C(=O)OC[C@@H]5C)noc4c3F)CC3(C(=O)NC(=O)NC3=O)[C@H]2[C@H](C)O1` [ZOLIFLODACIN], the solubility kinetic at 20 h, 200 µM (physchem) is reported as 160 µM (≈ 78 µg/mL), the MIC [1] is reported as 0.35 µM (≈ 0.171 µg/mL) and the MIC (Escherichia coli) is reported as 1.4 µM (≈ 0.682 µg/mL). For the same compound, the MIC50 [3] was 20 µM (≈ 9.75 µg/mL), the MIC99 [3] was 44 µM (≈ 21.4 µg/mL) and the MIC50 [4] was 4.6 µM (≈ 2.24 µg/mL). It also gave an MIC99 [4] of 12 µM (≈ 5.85 µg/mL).
